Reference: patent US20010022976A1, “Immunosuppressive and tumour-suppressive bone marrow factor” (London Health Sciences Centre, priority 1995, published 2001)

Tests used:
Na—K—Cl cotransport = Na—K—Cl cotransport measured by 86Rb uptake in Jurkat cells; format: cell-based; settings: 1 μm isoproterenol, p<0.001
Description: Jurkat cells were centrifuged for 15 min at 300×g and resuspended in Dulbecco's modified Eagle's medium (DMEM; ionic composition: 1.8 mM CaCl2, 5.4 mM KCl, 0.8 mM MgSO4, 110 mM NaCl, 0.9 mM NaH2PO4, 0.25 µM Fe(NO3)3; GIBCO, Grand Island, N.Y.) with 10 mM N-2 hydroxyethylpiperazine-N′-2 ethanesulfonic acid (HEPES), pH 7.4 at a final concentration of 5-10×10^6 cells/ml. […] Assays were stopped by aliquoting 100 μl of the reaction mixture into chilled microcentrifuge tubes prefilled with 100 μl of 3 mM BaCl2 and 0.1 mM of ouabain solution layered over 100 μl of a 3:1 of mazola oil to n-butylphthalate mixture. Cells were rapidly sedimented through the oil interface (1 min at 15,000 g). Centrifuge tube tips containing the tip pellets were clipped in the vials and radioactivity was determined by scintillation spectroscopy (Beckman LS 6000).

[1] = test system: cAMP-dependent protein kinase (PKA); assay: cAMP-dependent protein kinase (PKA) activity in digitonin-permeabilized Jurkat cells; format: cell-based; settings: 5× rat C18 purified Reptimed or 1 μm isoproterenol, basal activity 9 +/−1
Description: Cyclic AMP-dependent protein kinase (PKA) activity was assayed in digitonin-permeabilized cells. Jurkat cells were centrifuged at 300×g for 15 min and resuspended in Hanks' balanced salt solution without calcium and with 0.5 mM EDTA, 1 mM magnesium sulfate, and 1 mg/100 ml digitonin. Jurkat cells were incubated for 15 min at 4° C. and then washed twice as above in Hanks' solution without digitonin and finally resuspended at a final concentration of 10 to 20×10^6 cells/ml for assay. Cells were either untreated, treated with 5×rat C18 purified […], or with 1 μm isoproterenol, or with both 5[…] and 1 μm isoproterenol. PKA activity was assessed by the phosphorylation of the synthetic PKA substrate (Kemptide-Sigma Chemical Corporation, St. Louis, Mo.). Phosphorylated substrate was separated by adherence to phosphocellulose. After six washes in phosphoric acid, radioactivity on the phosphocellulose strips was assessed by scintillation spectroscopy.

CC(C)NCC(O)c1ccc(O)c(O)c1 (centres unmarked) [isoproterenol]
Na—K—Cl cotransport (86Rb uptake) (Na—K—Cl cotransport): 38 +/−8 % of control | PKA activity [1]: significant increase
